Calls of active or inactive are those of the source. The rule behind the calls is not given here.
System: Helicoverpa zea
Experiment: Antifeedant activity against Helicoverpa zea (corn earworm) at 250 mg/ml at 28 degC day/24 degC night measured after 6 days
Type: functional, organism-based

Compound | Activity
O=C(O)c1ccc(O)cc1 | inactive
Oc1ccc(C(O)c2ccc(O)cc2)cc1 | inactive

Source: ChEMBL document CHEMBL3044817, “Antifeedant and mosquitocidal compounds from Delphinium x cultorum cv. Magic fountains flowers” (J Agric Food Chem, 2000)
